Consider 1 compound from patent US20240115670A1, “FIBROBLAST ACTIVATION PROTEIN MODULATION TO ALTER IMMUNE CELL MIGRATION AND TUMOR INFILTRATION” (Georgetown University, priority 2021, published 2024).

The assay deals with NK92-GFP cells. In words: NK92-GFP extravasation from zebrafish blood vessels. In kind it is in vivo. As to conditions: fish bathed in 10 uM Cpd60 vs vehicle; 1 hour after injection. Here is the method: The zebrafish embryos were anesthetized with 0.0003016% tricaine (Pentair Aquatic Eco-Systems, Sigma-Aldrich, St. Louis, MO, USA) in the Georgetown-Lombardi Animal Shared Resource and positioned within our zebrafish stereotax on a proprietary microinjection plate. NK92-GFP cells were injected into the pericardium using an air driven Picospritzer Ha microinjector (General Valve/Parker Hannifin) under a stereoscope. After transplantation, embryos were allowed to recover for 1 hour at 33° C. Confocal imaging was performed on an Olympus IX-71 inverted microscope with a color CCD camera in the Georgetown-Lombardi Microscopy Shared Resource. Fluorescent imaging was performed on Keyence BZ-X. Images were taken at 10× across multiple z-stacks. […] NK extravasation quantification was performed by counting the number of GFP cells outside red vasculature. NK extravasation quantification was performed blinded to the treatment conditions. […]
Zebrafish studies were conducted in accordance with NIH guidelines for the care and use of laboratory animals and were approved by the Georgetown University Institutional Animal Care and Use Committee. […] NK extravasation quantification was performed by counting the number of GFP cells outside red vasculature. NK extravasation quantification was performed blinded to the treatment conditions. […]

As for `N#C[C@@H]1CC(F)(F)CN1C(=O)CNC(=O)c1ccnc2ccccc12` [Cpd60], the “NK cell extravasation from the blood vessels” value is on record as “significantly reduced”.
